Paper PMC10113214 (Scientific Reports, 2023)

Experiments:
[1] = Circular dichroism, conformation and thermal stability of β-sheet; assay type: physicochemical
Protocol: The molar ellipticity of peptides were registered on a Jasco J-815 spectrometer (JASCO, Easton, MD, USA). Solutions of peptide hybrids were prepared in water solution (10 mg/ml), incubated at 37 °C for 4 h and then diluted to a final concentration of 0.20 mg/ml. CD spectra measurements were performed at 25 °C, 30 °C, 35 °C, 40 °C, 45 °C, 50 °C, 55 °C and 60 °C, at 190–260 nm wavelength and at a scan speed of […]. The background of the solvent was subtracted. The results are presented as the relationship of mean residue molar ellipticity (MRME) [deg × cm^2 × dmol^−1] to wavelength [nm]. Measurements were performed in triplicate. In order to determine the peptides’ denaturation temperatures, the molar ellipticity rotatory angle at a fixed wavelength of 196 nm, [θ]196, was measured as a function of temperature (max 100 °C). CD temperature measurements were carried out up to a temperature of 100 °C. Above this temperature, the cure was extrapolated with GraphPad Prism 8 software using the 4PL curve fit function. The denaturation temperature was determined as the temperature at which the change in ellipticity (θ) was half complete.

[2] = Rheology of hydrogels; assay type: physicochemical; conditions: 1% hydrogel, 37 °C
Protocol: Rheological parameters of the hydrogels were identified using an MCR 302 rheometer (Anton Paar GmbH, Graz, Austria). The rheometer was equipped with a CP50-1 stainless steel cone-and-plate system of 50 mm diameter, 1° cone angle and 50 µm cone truncation and a Peltier controlled temperature unit. An aliquot of 900 µL of 1% hydrogel was applied to a plate cone. The linear viscoelastic (LVE) region was determined through an amplitude sweeps: shear strain (0.01–100% at 6 rad s^−1) and shear stress (0.001–10 Pa at 6.28 rad s^−1). Frequency sweep were measured from 0.01 to 100 rad s^−1 at 2.5% strain. The frequency dependence of the storage modulus (G’) and loss modulus (G”) of the hydrogels were measured at 37 °C. All experiments were carried out in triplicate and reported as the mean of three repeats.

[3] = biological target: T1, Human neutrophil elastase (Homo sapiens, UniProt P08246); test: Elastase enzymatic cleavage; assay type: in vitro ADME; conditions: human neutrophil elastase 150 nM, peptide 1 mM, 30 min, 37 °C; for identified fragments of peptides after elastase digestion (most abundant MS signals): 300 rpm, 0.1 M Tris HCl, 500 mM NaCl, 0.05% Triton X-100, 20 mM CaCl2 pH 7.5, HPLC and MALDI or LC-MS
T1 construct: purchased Sigma-Aldrich
T1 sequence (P08246 30-267): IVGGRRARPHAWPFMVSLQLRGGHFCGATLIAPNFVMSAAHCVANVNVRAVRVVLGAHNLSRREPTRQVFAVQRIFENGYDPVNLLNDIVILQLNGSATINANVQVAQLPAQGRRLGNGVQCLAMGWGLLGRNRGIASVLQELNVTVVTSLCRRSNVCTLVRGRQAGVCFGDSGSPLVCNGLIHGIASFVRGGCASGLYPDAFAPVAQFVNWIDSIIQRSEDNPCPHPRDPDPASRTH
Protocol: Human neutrophil elastase (EC No. 3.4.21.37, Sigma-Aldrich) was used to study peptide susceptibility to that enzyme. Peptides were dissolved in 0.1 M Tris HCl, 500 mM NaCl, 0.05% Triton X-100, 20 mM CaCl2 pH 7.5 buffer mixture. Peptides (final concentration 1 mM) were mixed with the enzyme (final concentration 150 nM) and incubated for 30 min. in a thermoshaker (37 °C, 300 rpm). The reaction was stopped by a 10% aqueous solution of TFA. The results were analyzed using HPLC and MALDI or LC–MS. Details of this experiment are described in the Supplementary Data.

[4] = Transmission electron microscopy of nanofibres; assay type: physicochemical; conditions: 1% gel in PBS diluted to 0.001%, uranyl acetate stain
Protocol: 1% gel solutions were prepared and incubated in PBS. The samples were then diluted to 0.001% concentration. A drop of solution was applied to a microcellulose membrane and stained with a 1.5% solution of uranyl acetate. The images were registered on a Tecnai Spirit BioTwin FEI Transmission Electron Microscope operating at 120 kV.

[5] = test system: 46BR.1N fibroblasts; test: LDH cytotoxicity assay, 46BR.1N; assay type: cell-based, human; conditions: 150 µg/ml, 48 h, 3 independent experiments, n = 12
Protocol: Human HaCaT keratinocytes (DKFZ, Heidelberg, Germany)[47],[48], the human dermal fibroblast 46BR.1N cell line (ECACC, Sigma Aldrich Co.) and human primary dermal fibroblasts used in this study were routinely cultured in culture flasks (growth surface area: 25 cm^2) in DMEM-HG medium supplemented with 10% fetal bovine serum, 100 U/mL penicillin and […] streptomycin under standard conditions.
Briefly, the HaCaT and 46BR.1N cells were seeded in 96-well plates at a density of 5000 per well. Cell stimulation with RADA derivatives was performed using a protocol described before[49],[50]. Both assays were performed according to the manufacturers’ instructions (XTT- Roche, Cat. No. 11465015001; LDH- Takara, Cat. No. MK401).

[6] = test system: full-thickness excisional dorsal skin wounds; test: Skin wound healing model in mice; assay type: in vivo, BALB/c mice
Protocol: Eight to ten-week-old BALB/c female mice were used for these experiments. All experimental procedures were approved by the Local Ethics Committee for Animal Experimentation in Bydgoszcz, Poland (Approval No. 49/2016). The study was conducted in compliance with the ARRIVE gudidelines. All animal handling methods were carried out in accordance with European Union Commission Recommendation of 18 June 2007 on guidelines for the accommodation and care of animals used for experimental and other scientific purposes. Before experiments, mice were randomized and divided into groups comprising six individuals. The mice were anaesthetized with inhaled 2–5% isoflurane. The skin on the dorsum was shaved and disinfected. After the skin was folded and raised cranially and caudally along the spine, the mouse was placed in a lateral position, and the folded skin was pierced with a 6.0 mm biopsy punch to make two through-and-through symmetrical wounds. Next, 10 µL of peptide hybrid hydrogel was applied onto each wound. Every gel was prepared in sterile conditions in biological safety cabinet, using sterile water to final concentration of 10 mg/ml (1%). Then the gels were incubated for 24 h allowing it to assemble. Control mice were treated with RADA16-I. The wounds were covered with a transparent Tegaderm TM dressing to protect the wound from outer environment of the cage and other animals. It was fastened with an adhesive plaster wrapped around the animal’s torso. The peptide hybrids were applied daily to the wounds for five consecutive days. The dressings were replaced daily in the first five days of the experiment and every second day until the end of the second week of the experiment. To measure the wound areas the wounds were photographed with a ruler placed next to the injury site. Wound areas were calculated using the computer-assisted image analysis program ImageJ[51].

Q: With `CC(=O)N[C@@H](CCCNC(=N)N)C(=O)N[C@@H](C)C(=O)N[C@@H](CC(=O)O)C(=O)N[C@@H](C)C(=O)N[C@@H](CCCNC(=N)N)C(=O)N[C@@H](C)C(=O)N[C@@H](CC(=O)O)C(=O)N[C@@H](C)C(=O)N[C@@H](CCCNC(=N)N)C(=O)N[C@@H](C)C(=O)N[C@@H](CC(=O)O)C(=O)N[C@@H](C)C(=O)N[C@@H](CCCNC(=N)N)C(=O)N[C@@H](C)C(=O)N[C@@H](CC(=O)O)C(=O)N[C@@H](C)C(=O)NCC(=O)NCC(=O)NCC(=O)N[C@@H](C)C(=O)N[C@@H](C)C(=O)N1CCC[C@H]1C(=O)N[C@H](C(=O)NCC(=O)NCC(=O)NCC(=O)N[C@@H](Cc1c[nH]cn1)C(=O)N[C@@H](CCCCN)C(N)=O)C(C)C` [RADA-GHK, Ac-(Arg-Ala-Asp-Ala)4-Gly-Gly-Gly-Ala-Ala-Pro-Val-Gly-Gly-Gly-His-Lys-NH2] as the compound, how does the “heat stability of β-sheet structure (rank)” value ([1]; CD scans at different temperatures) read?
A: highest

Q: What about the “temperature of first disruption of the β-sheets” value ([1]; CD, [θ]196 nm as function of temperature 4–100 °C, gel 10 mg/ml in water, 37 °C 4 h, diluted to 0.20 mg/ml, decrease of molar ellipticity) of the same compound?
A: ~65 °C

Q: What about the “transition temperature (half β-conformation, half disordered)” value ([1]; CD, [θ]196 nm vs temperature, 0.20 mg/ml in water, above 100 °C curve extrapolated, 4PL fit) of the same compound?
A: 94 °C

Q: What about the “storage modulus G’” value ([2]; cone-plate, frequency sweep 0.01–100 rad s−1 at 2.5% strain (Fig. 9 legend: 1%), mean of three repeats) of the same compound?
A: 550 Pa

Q: What about the “shear strain above which the gel behaves like a liquid (G” > G’)” value ([2]; strain sweep, ω = 6.28 rad/s) of the same compound?
A: above 30%

Q: What about the “identified fragments of peptides after elastase digestion (most abundant MS signals)” value ([3]; fragment Ac-(RADA)4-GGG-AAPV-COOH) of the same compound?
A: Ac-(RADA)4-GGG-AAPV-COOH

Q: And the “identified fragments of peptides after elastase digestion (most abundant MS signals)” value ([3]; fragment NH2 -GHK-NH2)?
A: NH2 -GHK-NH2

Q: And the “main / predominant fragments of elastase digestion” value ([3]; pH 7.5 buffer, HPLC, mass spectrometry)?
A: Gly^26His^27Lys^28

Q: And the “fibre thickness (TEM)” value [4]?
A: about 3 nm

Q: What about the “cytotoxicity (LDH), slight effect” value [5] of the same compound?
A: ca. 15%

Q: And the “wound closure on day 7” value ([6]; BALB/c female mice, 6.0 mm punch dorsal wounds, 10 µL 1% hydrogel topically daily for five days, n = 6, SD)?
A: 41.8 ± 16.1%

Q: And the “wound healing compared to RADA16-I” value ([6]; BALB/c mice, 1% hydrogel topically, day 2 up to day 14)?
A: Accelerated wound healing
